Assay [1] deals with immortal (high passage) MDAH041 cells. It is filed as cell-based, human.
In the next assay the test system is immortal MDAH041 cells. In words: Senescence phenotype (morphology, senescence associated β-galactosidase at pH 6), immortal MDAH041. It is filed as cell-based, human. As to conditions: immortal MDAH041 high passage treated with 5AZA-dC (1 μM days 1, 3, 5).

SMILES strings stand for the structures.

Experimental for immortal MDAH041 cells: The MDAH041 (p53 frameshift mutation) cell line was derived from primary fibroblasts obtained by skin biopsy from patients with LFS. […] All cells were grown in modified Eagles medium (MEM, Gibco BRL, MD, USA) with 10% fetal calf serum and antibiotics. The CRL1502 cell line was derived from primary fibroblasts obtained by skin biopsy from a normal donor (ATCC 1502, Rockville, Md., USA).

Take `Nc1ncn([C@H]2C[C@H](O)[C@@H](CO)O2)c(=O)n1` [5-aza-dC, 5-aza-2′-deoxycytidine]: in assay [1], the “(2-5′) oligoadenylate synthetase E gene OAS1 expression, MDAH041HP vs. MDAH0411HP 5aza” value is 1072↑ fold; the “ALDH1A3 expression, IM vs 5-aza-dC, QP” value is listed as 7.84 fold; the “CIG49 expression, MDAH041HP vs. MDAH0411HP 5aza” value is 204↑ fold; the “CLTB expression, IM vs 5-aza-dC, QP” value worked out at 2.04 fold. Further, in assay [1], the “CREG expression, IM vs 5-aza-dC, QP” value came to 2.88 fold; the “HSPA2 expression, IM vs 5-aza-dC, QP” value was 2.74 fold; the “IGFBP3 expression, IM vs 5-aza-dC, QP” value was determined as 8.29 fold; the “IGFBP4 expression, IM vs 5-aza-dC, QP” value turned out to be 7.00 fold. Besides, in assay [1], the “Interferon-induced 17-kDa/15-kDA expression, MDAH041HP vs. MDAH0411HP 5aza” value is 443↑ fold; the “Interferon-inducible 56 kDa protein expression, MDAH041HP vs. MDAH0411HP 5aza” value is on record as 1807↑ fold; the “Interferon-inducible membrane protein 9-27 (IFITM1) expression, MDAH041HP vs. MDAH0411HP 5aza” value is 278↑ fold; the “Interferon-inducible protein p78 expression, MDAH041HP vs. MDAH0411HP 5aza” value is 480↑ fold. Also, in assay [1], the “Interferon-regulatory factor 7B expression, MDAH041HP vs. MDAH0411HP 5aza” value is 20031↑ fold; the “KIAA1750 expression, IM vs 5-aza-dC, QP” value is listed as 3.86 fold; the “MGSF expression, MDAH041HP vs. MDAH0411HP 5aza” value is 800↑ fold; the “MIF expression, MDAH041HP vs. MDAH0411HP 5aza” value is 130↑ fold. Also, in assay [1], the “NDN expression, MDAH041HP vs. MDAH0411HP 5aza” value is reported as 10↑ fold; the “OPTN expression, IM vs 5-aza-dC, QP” value is recorded as 9.21 fold; the “SERPINB2 expression, IM vs 5-aza-dC, QP” value is 12.90 fold; the “STAT 1, 91 kD expression, MDAH041HP vs. MDAH0411HP 5aza” value is given as 158↑ fold. For the same compound, in assay [1], the “STAT1α expression, IM vs 5-aza-dC, QP” value worked out at 119.85 fold; the “TNFAIP2 expression, IM vs 5-aza-dC, QP” value is given as 6.10 fold; the “additional increase in hTERT RNA expression” value is recorded as 17 fold. Besides, the “senescent phenotype of treated cells” value in the assay on immortal MDAH041 cells is “had flat morphology, contained lipofuscin granules, and showed senescence associated β-galactosidase activity at pH 6”.

For the origin of these results see patent US20050250137A1, “Molecular targets of cancer and aging” (priority 2002, published 2005).
